≈ marks a conversion by molar mass, not a printed value.
Assays:
ZFL cells [1] = experiment: Cell viability by MTT assay; type: cell-based, zebrafish; conditions: 72 h
Protocol: Cell viability was determined by MTT assay. A total of 10,000 cells/well were seeded in 96-well plates under culture conditions for 24 h. Then, the culture medium was replaced by contaminated medium (200 µL) with range of concentrations of BDE-47 (0.2–10 mg·L^−1). Three independent replicates with the same experimental conditions, a control group (cells without pollutant) and a blank group (only cell culture medium) were performed. After 72 h, 20 µL of MTT solution (5 mg·mL^−1) was added to provide a final concentration of 0.5 mg·mL^−1 and incubated for 4 h. Formazan produced in the MTT assay was dissolved using 100 μL DMSO, and absorbance was recorded at 595 nm. The results have been subsequently used for the design of the bioaccumulation and biotransformation experiment.

ZFL cells [2] = experiment: Cell exposure for bioaccumulation: Ccell, Cmedium and in vitro BCF (ratio and toxicokinetic fit); type: cell-based, zebrafish; conditions: for BCFexp, 24 h / BCFexp, 48 h / BCFexp, 72 h: Ccell,exp/Cmedium
Protocol: A total of 2 × 10^6 ZFL cells were plated in P100 glass dishes and incubated for 24 h under standard culture conditions. Subsequently, the culture medium was replaced with a contaminated medium, which, according to the cell viability assay, maintained viability above 70% by the end of the exposure period (Section 2.3). Cells were exposed to 1.8 and 2.6 mg⋅L^−1 for 24, 48 and 72 h, in two independent experiments. Parallel experiments were conducted under identical conditions to assess losses: one set included cells without contaminated medium, and another consisted of contaminated medium without cells (“no cells”). The obtained pellets were collected from all exposure time, dried under a gentle stream of nitrogen and weighed on a precision analytical balance (±0.00001 g). Finally, the dried cell pellets and their corresponding medium collected at all exposure times, including the starting medium (“t = 0 h”), were stored at −20 °C until analysis.
Extraction of BDE-47 and its metabolites was performed simultaneously for each of the samples, cells, and exposure media. Finally, 500 μL of exposure medium was extracted with 500 μL of hexane: MTBE mixture (1:1) shaken vigorously with a vortex for 30 s. For cells, the pellet obtained (~5 mg) was treated with same solvents but assisted with an ultrasound probe for 1 min at 30% of amplitude and a pulse on/off, with 2 s/5 s for cell samples. The internal standards (IS) BDE-99 and TCS had been previously added. The mixture was centrifuged for 10 min at 10,000 rpm. The organic phase was separated, and the extraction step was repeated. Remaining extracts were evaporated to dryness under a gentle stream of nitrogen and reconstituted in 200 μL isooctane. A total of 80 μL of the volume obtained was derivatized with 20 μL of MTBSTFA at 70 °C for 30 min in the oven and injected into GC-μECD-MS for the OH-BDE quantification. PBDEs and MeO-BDEs were determined by direct injection of the remaining volume of isooctane extracts into the GC-µECD-MS, because PBDEs are not stable after the derivatization process. Due to the difference in concentration in the samples of the metabolites and BDE-47, a double determination was performed and diluted with isooctane for the detection of the latter, so that it was interpolated on the same calibration curve.
The GC–MS-µECD system was used for the separation and determination of BDE-47 and its metabolites. The MS was used for the identification and the µECD for their quantification. Both detectors operate simultaneously, thanks to the use of a flow splitter placed at the end of the chromatographic column. Sample (1 μL) were injected in splitless mode at 280 °C. Helium was used as carrier gas at a constant pressure of 22 psi. Column temperature was programmed to increase from 130 °C (1 min) to 222 °C (1 min) at a rate of 90 °C·min^−1, then to 245 °C (1 min) at 1 °C·min^−1 and finally to 280 °C (8 min) at 45 °C·min^−1. The μECD temperature was set at 320 °C and nitrogen was used as makeup gas (30 mL·min^−1). The flow ratio of the splitter was 1:1, thanks to the helium input and the restrictor length of each detector, according to the manual supplied by Agilent Technologies. m/z values for the SIM program are collected in Table S1.
The first quantitative estimation of BCF was carried out according to the definition of BCF in the official OECD 305 guideline; that is, the ratio between the chemical concentration in the cells (Ccell) and the chemical concentration of the surrounding medium (Cmedium). As explained earlier, Ccell can be determined experimentally (Ccell,exp) or by MBM (Ccell,MBM). Both these terms can be related to the experimentally determined concentration in the medium (Cmedium), the free concentration experimentally determined (Cfree,exp) or the free concentration estimated using MBM (Cfree,MBM). […]

ZFL cells [3] = test system: ZFL cells; design: method as in PMID 25544063; conditions: 10% FBS, cited from earlier work
Gammarus pulex = test system: Gammarus pulex; design: method as in PMID 24879528; conditions: 1 µg·L^−1; cited from earlier work
[4] = Cnominal 1.8 mg·L^−1, first-order toxicokinetic fit k1/k2

Brc1ccc(Oc2ccc(Br)cc2Br)c(Br)c1 [BDE-47, 2,2′,4,4′-tetrabromodiphenyl ether]
LC30 after applying percentage of Cfree (ZFL cells [1]; bioavailable concentration): 0.00055 µg/mL | concentration decreasing viability by 30% (LC30) (ZFL cells [1]; nominal concentration, 10% FBS): 0.45 µg/mL | concentration decreasing viability by 50% (LC50) (ZFL cells [1]; nominal concentration, 10% FBS): 2.03 µg/mL | Recovery in the mass balance (ZFL cells [2]; 24 h, 1.8 mg·L^−1, BDE-47 plus metabolites in cells, medium and losses): 77% | Recovery in the mass balance (ZFL cells [2]; 24 h, 2.6 mg·L^−1): 79% | Recovery in the mass balance (ZFL cells [2]; 48 h, 1.8 mg·L^−1): 70% | Recovery in the mass balance (ZFL cells [2]; 48 h, 2.6 mg·L^−1): 82% | Recovery in the mass balance (ZFL cells [2]; 72 h, 1.8 mg·L^−1): 74% | Recovery in the mass balance (ZFL cells [2]; 72 h, 2.6 mg·L^−1): 97% | average decrease of Cmedium over time from nominal concentration (ZFL cells [2]; Cnominal 1.8 mg·L^−1): 79% | BCFexp, 24 h (ZFL cells [2]; Cnominal 1.8 mg·L^−1): 50 L/kg | BCFexp, 48 h (ZFL cells [2]; Cnominal 1.8 mg·L^−1): 83 L/kg | BCFexp, 72 h (ZFL cells [2]; Cnominal 1.8 mg·L^−1): 100 L/kg | BCFk Ccell exp/Cfree,exp (ZFL cells [2]; [4]): 74,300 L·kg^−1 | BCFk Ccell exp/Cw (ZFL cells [2]; [4]): 30 L/kg | average decrease of Cmedium over time from nominal concentration (ZFL cells [2]; Cnominal 2.6 mg·L^−1): 33% | BCFexp, 24 h (ZFL cells [2]; Cnominal 2.6 mg·L^−1): 51 L/kg | BCFexp, 48 h (ZFL cells [2]; Cnominal 2.6 mg·L^−1): 55 L/kg | BCFexp, 72 h (ZFL cells [2]; Cnominal 2.6 mg·L^−1): 80 L/kg | BCFk Ccell exp/Cfree,exp (ZFL cells [2]; Cnominal 2.6 mg·L^−1, first-order toxicokinetic fit k1/k2): 63,435 L·kg^−1 | LC50 (24 h) (ZFL cells [3]; 24 h): 1.60 µg/mL (≈ 3.29 µM) | LC50 (96 h) (ZFL cells [3]; 96 h): 1.26 µg/mL (≈ 2.59 µM) | BCFk (Gammarus pulex): ~5000 L/kg

— article PMC12194305, “Assessing Bioconcentration and Biotransformation of BDE-47 In Vitro: The Relevance of Bioavailable and Intracellular Concentrations” (Journal of Xenobiotics, 2025)
